ChEMBL document CHEMBL1201862, “PubChem BioAssay data set” (2004)
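Where inhibition never reached the appropriate level, the endpoint shown equals the highest concentration tested. Otherwise, values were interpolated linearly from a five-concentration, 48-hour dose response in 96-well plates. Abbreviation: GI50, concentration required for 50% inhibition of growth.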 Calls of active or inactive are those of the source. No stated cut-off is given here; in the data, active = GI50 up to about 1.1 µM and inactive = higher.

Columns and labels:
Experiment in all cases: inhibition of tumour cell growth, NCI panel, 48 h
786-0 = test system: 786-0
A549 = test system: A549
ACHN = test system: ACHN
BT-549 = test system: BT-549
CAKI-1 = test system: CAKI-1
CCRF-CEM = test system: CCRF-CEM
COLO 205 = test system: COLO 205
DU-145 = test system: DU-145
EKVX = test system: EKVX
HCC 2998 = test system: HCC 2998
HCT-116 = test system: HCT-116
HCT-15 = test system: HCT-15
HL-60 = test system: HL-60
HOP-62 = test system: HOP-62
HOP-92 = test system: HOP-92
HT-29 = test system: HT-29
Hs-578T = test system: Hs-578T
IGROV-1 = test system: IGROV-1
KM12 = test system: KM12
LOX IMVI = test system: LOX IMVI
M14 = test system: M14
MCF7 = test system: MCF7
MDA-MB-231 = test system: MDA-MB-231
MDA-MB-435 = test system: MDA-MB-435
MDA-N = test system: MDA-N
MOLT-4 = test system: MOLT-4
Malme-3M = test system: Malme-3M
NCI-H23 = test system: NCI-H23
NCI-H460 = test system: NCI-H460
NCI/ADR-RES = test system: NCI/ADR-RES
OVCAR-3 = test system: OVCAR-3
OVCAR-5 = test system: OVCAR-5
OVCAR-8 = test system: OVCAR-8
PC-3 = test system: PC-3
RPMI-8226 = test system: RPMI-8226
SF-268 = test system: SF-268
SF-295 = test system: SF-295
SF-539 = test system: SF-539
SK-MEL-28 = test system: SK-MEL-28
SK-MEL-5 = test system: SK-MEL-5
SK-OV-3 = test system: SK-OV-3
SN12C = test system: SN12C
SNB-19 = test system: SNB-19
SNB-75 = test system: SNB-75
SW-620 = test system: SW-620
T47D = test system: T47D
TK-10 = test system: TK-10
U-251 = test system: U-251
UACC-257 = test system: UACC-257
UO-31 = test system: UO-31
A498 = test system: A498
K562 = test system: K562
NCI-H522 = test system: NCI-H522
OVCAR-4 = test system: OVCAR-4
RXF 393 = test system: RXF 393
SK-MEL-2 = test system: SK-MEL-2
SR = test system: SR
UACC-62 = test system: UACC-62
NCI-H226 = test system: NCI-H226

In the case of `C[n+]1c(/C=C/c2ccc(/C=N/NC(=O)c3ccc(C(=O)N/N=C/c4ccc(/C=C/c5cn6ccccc6[n+]5C)cc4)cc3)cc2)cn2ccccc21`, the GI50 (786-0) was 16.6 µM (inactive), the GI50 (A549) was > 100 µM (inactive) and the GI50 (ACHN) was > 100 µM (inactive). For the same molecule, the GI50 (BT-549) was > 100 µM (inactive), the GI50 (CAKI-1) was > 100 µM (inactive) and the GI50 (CCRF-CEM) was 20 µM (inactive). For the same molecule, the GI50 (COLO 205) was 98.4 µM (inactive), the GI50 (DU-145) was > 100 µM (inactive) and the GI50 (EKVX) was > 100 µM (inactive). The GI50 (HCC 2998) was > 100 µM (inactive), the GI50 (HCT-116) was > 100 µM (inactive) and the GI50 (HCT-15) was > 100 µM. For the same molecule, the GI50 (HL-60) was 23.4 µM (inactive), the GI50 (HOP-62) was > 100 µM (inactive) and the GI50 (HOP-92) was > 100 µM (inactive). For the same molecule, the GI50 (HT-29) was > 100 µM (inactive), the GI50 (Hs-578T) was > 100 µM (inactive) and the GI50 (IGROV-1) was > 100 µM (inactive). The GI50 (KM12) was > 100 µM (inactive), the GI50 (LOX IMVI) was > 100 µM (inactive) and the GI50 (M14) was > 100 µM (inactive). For the same molecule, the GI50 (MCF7) was > 100 µM (inactive), the GI50 (MDA-MB-231) was > 100 µM (inactive) and the GI50 (MDA-MB-435) was > 100 µM (inactive). The GI50 (MDA-N) was > 100 µM (inactive), the GI50 (MOLT-4) was 30.9 µM (inactive) and the GI50 (Malme-3M) was > 100 µM (inactive). The GI50 (NCI-H23) was > 100 µM (inactive), the GI50 (NCI-H460) was > 100 µM (inactive) and the GI50 (NCI/ADR-RES) was > 100 µM (inactive). The GI50 (OVCAR-3) was > 100 µM (inactive), the GI50 (OVCAR-5) was > 100 µM (inactive) and the GI50 (OVCAR-8) was > 100 µM (inactive). For the same molecule, the GI50 (PC-3) was > 100 µM (inactive), the GI50 (RPMI-8226) was > 100 µM (inactive) and the GI50 (SF-268) was > 100 µM (inactive). The GI50 (SF-295) was > 100 µM (inactive), the GI50 (SF-539) was > 100 µM (inactive) and the GI50 (SK-MEL-28) was > 100 µM (inactive). For the same molecule, the GI50 (SK-MEL-5) was 1.89 µM (inactive), the GI50 (SK-OV-3) was > 100 µM (inactive) and the GI50 (SN12C) was > 100 µM (inactive). The GI50 (SNB-19) was > 100 µM (inactive), the GI50 (SNB-75) was > 100 µM (inactive) and the GI50 (SW-620) was > 100 µM (inactive). The GI50 (T47D) was > 100 µM (inactive), the GI50 (TK-10) was > 100 µM (inactive) and the GI50 (U-251) was > 100 µM (inactive). The GI50 (UACC-257) was > 100 µM (inactive) and the GI50 (UO-31) was > 100 µM (inactive).
`COc1nc(C#CC(C)(C)C)nc(OC)n1` was tested, and the GI50 (786-0) was 23.8 µM (inactive), the GI50 (A498) was 41.9 µM (inactive) and the GI50 (A549) was 25.4 µM (inactive). For the same molecule, the GI50 (ACHN) was 39 µM (inactive), the GI50 (BT-549) was 31.9 µM (inactive) and the GI50 (CAKI-1) was 22.3 µM (inactive). For the same molecule, the GI50 (COLO 205) was 31.8 µM (inactive), the GI50 (DU-145) was 23.6 µM (inactive) and the GI50 (EKVX) was 36 µM (inactive). The GI50 (HCT-116) was 15.7 µM (inactive), the GI50 (HCT-15) was 20.8 µM and the GI50 (HL-60) was 25.8 µM (inactive). The GI50 (HOP-62) was 34.4 µM (inactive), the GI50 (HT-29) was 40 µM (inactive) and the GI50 (Hs-578T) was 30.8 µM (inactive). For the same molecule, the GI50 (IGROV-1) was 39.4 µM (inactive), the GI50 (K562) was 38 µM (inactive) and the GI50 (KM12) was 18.2 µM (inactive). The GI50 (LOX IMVI) was 16.6 µM (inactive), the GI50 (M14) was 36.6 µM (inactive) and the GI50 (MCF7) was 19 µM (inactive). For the same molecule, the GI50 (MDA-MB-231) was 20.9 µM (inactive), the GI50 (MDA-MB-435) was 15 µM (inactive) and the GI50 (MDA-N) was 12.4 µM (inactive). The GI50 (MOLT-4) was 35.6 µM (inactive), the GI50 (Malme-3M) was 19 µM (inactive) and the GI50 (NCI-H23) was 19.7 µM (inactive). The GI50 (NCI-H460) was 26.8 µM (inactive), the GI50 (NCI-H522) was 23.9 µM (inactive) and the GI50 (NCI/ADR-RES) was 21 µM (inactive). For the same molecule, the GI50 (OVCAR-3) was 28.6 µM (inactive), the GI50 (OVCAR-4) was 16.4 µM (inactive) and the GI50 (OVCAR-5) was 21.2 µM (inactive). For the same molecule, the GI50 (OVCAR-8) was 17.8 µM (inactive), the GI50 (PC-3) was 31 µM (inactive) and the GI50 (RXF 393) was 31.9 µM (inactive). For the same molecule, the GI50 (SF-268) was 26.2 µM (inactive), the GI50 (SF-295) was 32.4 µM (inactive) and the GI50 (SF-539) was 28.8 µM (inactive). For the same molecule, the GI50 (SK-MEL-28) was 37.2 µM (inactive), the GI50 (SK-MEL-2) was 30.3 µM (inactive) and the GI50 (SK-MEL-5) was 16 µM (inactive). For the same molecule, the GI50 (SK-OV-3) was 55 µM (inactive), the GI50 (SN12C) was 21.9 µM (inactive) and the GI50 (SNB-19) was > 100 µM (inactive). For the same molecule, the GI50 (SNB-75) was 33.6 µM (inactive), the GI50 (SR) was 5.21 µM (inactive) and the GI50 (SW-620) was 25 µM (inactive). For the same molecule, the GI50 (T47D) was 55.5 µM (inactive), the GI50 (TK-10) was 27.4 µM (inactive) and the GI50 (U-251) was 39.2 µM (inactive). The GI50 (UACC-257) was 48.3 µM (inactive), the GI50 (UACC-62) was 14.8 µM (inactive) and the GI50 (UO-31) was 28.7 µM (inactive).
For `CC(C)(C)c1cc(C(CO)OCCOCCO)cc(C(C)(C)C)c1O` (stereo not drawn), the GI50 (786-0) was > 100 µM (inactive), the GI50 (A498) was > 100 µM (inactive) and the GI50 (A549) was > 100 µM (inactive). The GI50 (ACHN) was > 100 µM (inactive), the GI50 (BT-549) was > 100 µM (inactive) and the GI50 (CAKI-1) was > 100 µM (inactive). The GI50 (CCRF-CEM) was > 100 µM (inactive), the GI50 (COLO 205) was > 100 µM (inactive) and the GI50 (DU-145) was > 100 µM (inactive). For the same molecule, the GI50 (EKVX) was > 100 µM (inactive), the GI50 (HCT-116) was > 100 µM (inactive) and the GI50 (HCT-15) was > 100 µM. The GI50 (HOP-62) was > 100 µM (inactive), the GI50 (HOP-92) was > 100 µM (inactive) and the GI50 (HT-29) was > 100 µM (inactive). For the same molecule, the GI50 (Hs-578T) was > 100 µM (inactive), the GI50 (IGROV-1) was > 100 µM (inactive) and the GI50 (K562) was > 100 µM (inactive). The GI50 (KM12) was > 100 µM (inactive), the GI50 (LOX IMVI) was > 100 µM (inactive) and the GI50 (M14) was > 100 µM (inactive). For the same molecule, the GI50 (MCF7) was > 100 µM (inactive), the GI50 (MDA-MB-231) was > 100 µM (inactive) and the GI50 (MDA-MB-435) was > 100 µM (inactive). For the same molecule, the GI50 (MDA-N) was > 100 µM (inactive), the GI50 (Malme-3M) was > 100 µM (inactive) and the GI50 (NCI-H226) was > 100 µM (inactive). For the same molecule, the GI50 (NCI-H23) was > 100 µM (inactive), the GI50 (NCI-H522) was > 100 µM (inactive) and the GI50 (NCI/ADR-RES) was > 100 µM (inactive). The GI50 (OVCAR-3) was > 100 µM (inactive), the GI50 (OVCAR-4) was > 100 µM (inactive) and the GI50 (OVCAR-5) was > 100 µM (inactive). For the same molecule, the GI50 (OVCAR-8) was > 100 µM (inactive), the GI50 (PC-3) was > 100 µM (inactive) and the GI50 (RPMI-8226) was > 100 µM (inactive). The GI50 (RXF 393) was > 100 µM (inactive), the GI50 (SF-268) was > 100 µM (inactive) and the GI50 (SF-295) was > 100 µM (inactive). The GI50 (SF-539) was > 100 µM (inactive), the GI50 (SK-MEL-28) was > 100 µM (inactive) and the GI50 (SK-MEL-2) was > 100 µM (inactive). For the same molecule, the GI50 (SK-MEL-5) was > 100 µM (inactive), the GI50 (SK-OV-3) was > 100 µM (inactive) and the GI50 (SN12C) was > 100 µM (inactive). For the same molecule, the GI50 (SNB-19) was > 100 µM (inactive), the GI50 (SNB-75) was > 100 µM (inactive) and the GI50 (SW-620) was > 100 µM (inactive). The GI50 (T47D) was > 100 µM (inactive), the GI50 (TK-10) was > 100 µM (inactive) and the GI50 (U-251) was > 100 µM (inactive). The GI50 (UACC-257) was > 100 µM (inactive), the GI50 (UACC-62) was > 100 µM (inactive) and the GI50 (UO-31) was > 100 µM (inactive).
